Converted amounts (≈) assume the structure as drawn. Marks after values point to notes of the source that are not given here.
system: human sperm (semen samples); experiment: Spermicidal activity in the Sander-Cramer test; assay type: cell-based; conditions: Table 1
Experimental: Semen samples were collected from healthy human volunteers: only specimens with >60×10^6 motile sperm/mL and >50% motility were used. Two-fold serial dilutions of the compounds were prepared in 0.9% saline and incubated with semen samples for 20 seconds. Sperm were assessed under the microscope and positive dilutions (i.e. all observed sperm were immotile) were further incubated at 37° C. for 1 hour with 2 vol. of buffer, and re-examined for sperm motility. If no motile sperm were seen, the positive score was maintained. The Minimum Effective Concentration (MEC) for the compound was calculated using the highest sperm immobilizing dilution and its initial concentration.

Compound	spermicidal activity (MEC), in words
CCCCCCCCCCCCCC[C@@]1(O)C[N+](C)(C)C[C@@H](CC(=O)[O-])O1 [Compound Z-14]	slightly lower than that of N-9
CCCCCCCCCCCCCCC[C@@]1(O)C[N+](C)(C)C[C@@H](CC(=O)[O-])O1 [Compound Z-15]	slightly lower than that of N-9

same assay, conditions: Table 1; initial conc. 10 mg/ml in dH2O; n=10

Compound	Highest Spermicidal Dilution (1/X)	MEC (Minimum Effective Concentration)
CCCCCCCCCC[C@@]1(O)C[N+](C)(C)C[C@@H](CC(=O)[O-])O1 [Compound Z-10]	4.8 ± 0.5 1/X	2.3 ± 0.2 mg/mL
CCCCCCCCCCC[C@@]1(O)C[N+](C)(C)C[C@@H](CC(=O)[O-])O1 [Compound Z-11]	7.6 ± 0.0 1/X	1.4 ± 0.1 mg/mL
CCCCCCCCCCCCCC[C@@]1(O)C[N+](C)(C)C[C@@H](CC(=O)[O-])O1 [Compound Z-14]	102.4 ± 18.5 1/X	0.121 ± 0.014 mg/mL
CCCCCCCCCCCCCCC[C@@]1(O)C[N+](C)(C)C[C@@H](CC(=O)[O-])O1 [Compound Z-15]	102.4 ± 9.9 1/X	0.109 ± 0.012 mg/mL

same assay, conditions: Table 4; dH2O

Compound	MEC (Minimum Effective Concentration per Sander-Cramer assay)
CCCCCCCCCCCCCC[C@@]1(O)C[N+](C)(C)C[C@@H](CC(=O)[O-])O1 [Compound Z-14]	0.091 ± 0.008 mg/mL
CCCCCCCCCCCCCCC[C@@]1(O)C[N+](C)(C)C[C@@H](CC(=O)[O-])O1 [Compound Z-15]	0.104 ± 0.011 mg/mL

same assay, conditions: Table 5; initial conc. 10 mg/ml in dH2O; n=10

Compound	Highest Spermicidal Dilution (1/X)	MEC
CCCCCCCCCCCCCCC[C@@]1(O)C[N+](C)(C)C[C@@H](CC(=O)[O-])O1 [Compound Z-15]	73.6 ± 9.1 1/X	0.156 ± 0.019 mg/mL

system: Candida albicans; experiment: Inhibition of growth of Candida albicans (MIC); assay type: cell-based; conditions: not given
Experimental: The Minimum Inhibitory Concentrations (MICs) of Z-10-Z-15 were measured by determining the inhibition of growth of C. albicans in a solution of mineral salts plus yeast extract (See Standard Practice for Determining Resistance of Synthetic Polymeric Material to Fungi. American Society for Testing and Materials (ASTM) Standards on Materials and Environmental Microbiology, 1st Ed., 1987), and amended with glucose (10 g/L) and yeast extract (1 g/L). An aliquot (250 μl) of sterile medium was dispensed into each well of a 96-well microplate. Stock solutions were prepared by dissolving test compounds in 50% (v/v) aqueous dimethylsulfoxide (DMSO). Each well (plus controls) was then inoculated with 5 μl of a suspension of C. albicans. The suspension was then adjusted to provide OD686=0.28. This density contains ca. 2.5×10^7 colony forming units (CFU)^2/mL. The microplates were incubated in the dark for 4 days at 28° C.

Compound	C. albicans growth inhibition, in words
CCCCCCCCCCCCCC[C@@]1(O)C[N+](C)(C)C[C@@H](CC(=O)[O-])O1 [Compound Z-14]	acceptable activity
CCCCCCCCCCCCCCC[C@@]1(O)C[N+](C)(C)C[C@@H](CC(=O)[O-])O1 [Compound Z-15]	highest activity

same assay, conditions: C. albicans, 4 days at 28° C.

Compound	MIC
CCCCCCCCCC[C@@]1(O)C[N+](C)(C)C[C@@H](CC(=O)[O-])O1 [Compound Z-10]	>100 µg/mL
CCCCCCCCCCC[C@@]1(O)C[N+](C)(C)C[C@@H](CC(=O)[O-])O1 [Compound Z-11]	>100 µg/mL
CCCCCCCCCCCCCC[C@@]1(O)C[N+](C)(C)C[C@@H](CC(=O)[O-])O1 [Compound Z-14]	10 µg/mL (≈ 25.9 µM)
CCCCCCCCCCCCCCC[C@@]1(O)C[N+](C)(C)C[C@@H](CC(=O)[O-])O1 [Compound Z-15]	2 µg/mL (≈ 5 µM)

system: HIV-1 (RF strain); experiment: In vitro anti-HIV cell-free inactivation assay; assay type: cell-based; conditions: 0.032 mg/mL, 2 minutes exposure
Experimental: The assay for in vitro anti-HIV activity followed the previously described procedure (Resnick et al., 1990). An infectious suspension of HIV-1 (RF strain, NIH 1983) was exposed to the compounds for 2 minutes. Immediately after, the mixture was 10-fold serially diluted with medium to terminate compound effect, and the dilutions were incubated with MT-2 target cells at 37° C. The cells were maintained in growth medium at 37° C. for 6 days. HIV-induced cytopathology (syncytium formation) was assessed on day 6 after infection, as was cell viability.

Compound	reduction of infective viral titer
CCCCCCCCCCCCCC[C@@]1(O)C[N+](C)(C)C[C@@H](CC(=O)[O-])O1 [Compound Z-14]	0.5 log units
CCCCCCCCCCCCCCC[C@@]1(O)C[N+](C)(C)C[C@@H](CC(=O)[O-])O1 [Compound Z-15]	0.3 log units

same assay, conditions: 0.1 mg/mL, 2 minutes exposure

Compound	reduction of infective viral titer
CCCCCCCCCCCCCC[C@@]1(O)C[N+](C)(C)C[C@@H](CC(=O)[O-])O1 [Compound Z-14]	1.5 log units
CCCCCCCCCCCCCCC[C@@]1(O)C[N+](C)(C)C[C@@H](CC(=O)[O-])O1 [Compound Z-15]	1.5 log units

same assay, conditions: 0.32 mg/mL, 2 minutes exposure

Compound	reduction of infective viral titer
CCCCCCCCCC[C@@]1(O)C[N+](C)(C)C[C@@H](CC(=O)[O-])O1 [Compound Z-10]	0.8 log units
CCCCCCCCCCC[C@@]1(O)C[N+](C)(C)C[C@@H](CC(=O)[O-])O1 [Compound Z-11]	0.8 log units
CCCCCCCCCCCCCC[C@@]1(O)C[N+](C)(C)C[C@@H](CC(=O)[O-])O1 [Compound Z-14]	2.8 log units
CCCCCCCCCCCCCCC[C@@]1(O)C[N+](C)(C)C[C@@H](CC(=O)[O-])O1 [Compound Z-15]	2.7 log units

same assay, conditions: 1 mg/mL, 2 minutes exposure

Compound	reduction of infective viral titer
CCCCCCCCCC[C@@]1(O)C[N+](C)(C)C[C@@H](CC(=O)[O-])O1 [Compound Z-10]	1.0 log units
CCCCCCCCCCC[C@@]1(O)C[N+](C)(C)C[C@@H](CC(=O)[O-])O1 [Compound Z-11]	2.0 log units
CCCCCCCCCCCCCC[C@@]1(O)C[N+](C)(C)C[C@@H](CC(=O)[O-])O1 [Compound Z-14]	3.5 log units
CCCCCCCCCCCCCCC[C@@]1(O)C[N+](C)(C)C[C@@H](CC(=O)[O-])O1 [Compound Z-15]	3.2 log units

same assay, conditions: 3.2 mg/mL, 2 minutes exposure

Compound	reduction of infective viral titer
CCCCCCCCCC[C@@]1(O)C[N+](C)(C)C[C@@H](CC(=O)[O-])O1 [Compound Z-10]	2.8 log units
CCCCCCCCCCC[C@@]1(O)C[N+](C)(C)C[C@@H](CC(=O)[O-])O1 [Compound Z-11]	2.7 log units
CCCCCCCCCCCCCC[C@@]1(O)C[N+](C)(C)C[C@@H](CC(=O)[O-])O1 [Compound Z-14]	≧4.0 log units
CCCCCCCCCCCCCCC[C@@]1(O)C[N+](C)(C)C[C@@H](CC(=O)[O-])O1 [Compound Z-15]	3.8 log units

same assay, conditions: 10 mg/mL, 2 minutes exposure

Compound	reduction of infective viral titer
CCCCCCCCCC[C@@]1(O)C[N+](C)(C)C[C@@H](CC(=O)[O-])O1 [Compound Z-10]	≧4.0^a log units
CCCCCCCCCCC[C@@]1(O)C[N+](C)(C)C[C@@H](CC(=O)[O-])O1 [Compound Z-11]	4.7 log units
CCCCCCCCCCCCCC[C@@]1(O)C[N+](C)(C)C[C@@H](CC(=O)[O-])O1 [Compound Z-14]	≧4.0^ log units
CCCCCCCCCCCCCCC[C@@]1(O)C[N+](C)(C)C[C@@H](CC(=O)[O-])O1 [Compound Z-15]	≧4.0^ log units

system: sperm penetration in bovine cervical mucus; experiment: Cervical mucus biodiffusion, Double-End test; conditions: testing concentration ten fold MEC; 60 minutes incubation; n=12
Experimental: The cervical mucus Biodiffusion properties of (R)Z-14 and (R)-Z-15 analogues were tested in comparison to that of N-9 using the Double-End test (Doncel. 1994). In this test, compound solutions (in 0.9% saline) were incubated for 60 minutes with a 7 cm capillary tube containing bovine cervical mucus (Penetrak®, Biochem Immuno System, Norwell, Mass.) opened at one end. After such incubation, the tubes' open end, which had been in contact with the compound, was sealed. Subsequently, the tubes were cut open at 20 mm from the initial opening, inverted, and immersed in semen so as to allow sperm penetration in an opposite direction to that of the compound diffusion. Sperm cease penetration when they encounter a bioactive concentration of the test compound. Thus, the lower the sperm penetration, the greater the compound's biodiffusion. In addition, the spermicidal activity of the analogues was tested again.

Compound	DET % control (test sperm penetration compared to control)
CCCCCCCCCCCCCC[C@@]1(O)C[N+](C)(C)C[C@@H](CC(=O)[O-])O1 [Compound Z-14]	18.0 ± 1.2 % control
CCCCCCCCCCCCCCC[C@@]1(O)C[N+](C)(C)C[C@@H](CC(=O)[O-])O1 [Compound Z-15]	16.0 ± 0.0 % control

system: not listed separately; experiment: Effect of time in CMC formulation on activity and chemical integrity; assay type: physicochemical; conditions: six months in the CMC formulation
Experimental: Residual samples of (R)-Z-15 in the CMC formulation were analyzed with ^1H nuclear magnetic resonance (NMR) and Matrix Assisted Laser Desorption Ionization Time of Flight Mass Spectroscopy (MALDI-TOF). For the NMR analyses, samples of the hydrogel were dissolved in D2O. For the MALDI-TOF analysis a sample of the hydrogel was placed in the chamber and subjected to the laser. The MALDI-TOF results are depicted in FIG. 1.

Compound	chemical integrity in formulation (1H NMR, MALDI-TOF)
CCCCCCCCCCCCCCC[C@@]1(O)C[N+](C)(C)C[C@@H](CC(=O)[O-])O1 [Compound Z-15]	remained unchanged chemically

same assay, conditions: three months in the CMC formulations

Compound	spermicidal activity after time in formulation
CCCCCCCCCCCCCCC[C@@]1(O)C[N+](C)(C)C[C@@H](CC(=O)[O-])O1 [Compound Z-15]	still active as a spermicide after three months

system: spermatozoa; experiment: Sperm motility inhibition dose-response; assay type: cell-based; conditions: FIG. 2
Experimental: The ability of Z-15-mucic acid blends [(R)-Z-15-MA and rac-Z-15-MA] to inhibit sperm motility was tested in comparison to (R)-Z-15 alone or N-9. The results are depicted in FIG. 2.

Compound	inhibition of sperm motility at concentrations below the MEC, in words
CCCCCCCCCCCCCCC[C@@]1(O)C[N+](C)(C)C[C@@H](CC(=O)[O-])O1 [Compound Z-15]	superior ability of Z-15 over N-9

system: not listed separately; experiment: pH of sample; assay type: physicochemical; conditions: not given
Text: The recent disclosure (Fassi, U.S. Pat. No. 5,952.379) of stable, non-hygroscopic salts of L-(-)[(R)-]acylcamitine and alkanoyl L-(-)-[(R)-]acylcarnitines with mucic acid (MA) (2:1) prompted the exploration of the effects of blending MA with Z-15. Blending reduced the pH of a sample of Z-15 from about 9-10 to about 3.5-3.8. The blends contained only 67% Z-15 as an active ingredient compared to pure Z-15 (100%).

Compound	pH of a sample
CCCCCCCCCCCCCCC[C@@]1(O)C[N+](C)(C)C[C@@H](CC(=O)[O-])O1 [Compound Z-15]	9-10

Source: patent publication US6656936B1, “Carnitine analogues as topical, microbicidal spermicides” (Virginia Tech Intellectual Properties, Inc., priority 1999, dated 2003)
